From the supplement of paper PMC13380429

What was measured:
Caco-2 [1] = assay: relative viability EC50 (midpoint between 100% and the lowest measured viability); higher = less toxic; conditions: 72 h
U2OS [2] = assay: as above; conditions: 72 h
HepG2 [3] = assay: as above; conditions: 72 h
Calu-3 [4] = assay: as above; conditions: 72 h
Vero E6 [5] = assay: as above; conditions: 72 h
Caco-2 [6] = assay: drug sensitivity score (DSS) for viability; higher = more toxic; extreme values may be limits of the assay; conditions: 72 h
U2OS [7] = assay: as above; conditions: 72 h
HepG2 [8] = assay: as above; conditions: 72 h
Calu-3 [9] = assay: as above; conditions: 72 h
Vero E6 [10] = assay: as above; conditions: 72 h
Caco-2 [11] = assay: cell viability relative to DMSO; higher = less toxic; conditions: 72 h
U2OS [12] = assay: as above; conditions: 72 h
HepG2 [13] = assay: as above; conditions: 72 h
Calu-3 [14] = assay: as above; conditions: 72 h
Vero E6 [15] = assay: as above; conditions: 72 h
[16] = system: A549-ACE2 infected with SARS-CoV-2; assay: morphology score (similarity to uninfected cells); higher = more like uninfected cells; conditions: 24 h
A549-ACE2 [17] = assay: drug-induced phospholipidosis relative to tamoxifen; higher = more phospholipidosis
[18] = system: A549-ACE2 infected with SARS-CoV-2; assay: cell count relative to DMSO; higher = less toxic; conditions: 24 h
[19] = system: A549-ACE2 infected with SARS-CoV-2; assay: SARS-CoV-2 infection rate relative to DMSO; higher = more infection; conditions: 24 h
A549-ACE2 [20] = assay: phospholipidosis EC50; higher = less potent phospholipidosis inducer

CC1(C)CC[C@]2(C(=O)O)CC[C@]3(C)[C@H](C(=O)C=C4[C@@]5(C)C=C(C#N)C(=O)C(C)(C)[C@@H]5CC[C@]43C)[C@@H]2C1 [bardoxolone]
Conditions	drug sensitivity score	relative viability EC50 [µM]
Caco-2 [1]	–	> 10
Caco-2 [6]	5.3	–
Calu-3 [4]	–	2.44
Calu-3 [9]	5.9	–
HepG2 [3]	–	1.28
HepG2 [8]	9.5	–
U2OS [2]	–	1.37
U2OS [7]	8.9	–
Vero E6 [5]	–	3.43
Vero E6 [10]	4.2	–

Conditions	SARS-CoV-2 infection rate, [19] [%]	cell count, [18] [%]	cell viability, Caco-2 [11] [%]	cell viability, Calu-3 [14] [%]	cell viability, HepG2 [13] [%]	cell viability, U2OS [12] [%]	cell viability, Vero E6 [15] [%]	morphology score, [16]
1 nM	–	–	91.3	102	98.2	101	101	–
10 nM	–	–	107	104	92.1	104	102	–
100 nM	–	–	78.1	102	89.7	102	111	–
0.1 µM	97	101	–	–	–	–	–	0.07
0.3 µM	99	91	–	–	–	–	–	-0.05
1000 nM	–	–	83.8	92.5	62.8	72.3	104	–
1 µM	99	89	–	–	–	–	–	-0.09
3 µM	115	94	–	–	–	–	–	-0.26
10000 nM	–	–	82.9	15.5	5.4	12	18.3	–

drug-induced phospholipidosis [%], A549-ACE2 [17]
Conditions	0.3 µM	0.833333 µM	3.33333 µM	6.66667 µM	10 µM
24 h	-1.07	-5.8	7.86	18.2	-6.56
48 h	-3.77	-7.72	1.1	–	–
72 h	-2.71	-7.17	–	–	–

CN1[C@@H]2CC[C@H]1C[C@@H](OC(c1ccccc1)c1ccccc1)C2 [benztropine-mesylate]
Conditions	SARS-CoV-2 infection rate [%]	cell count [%]	cell viability [%]	morphology score	phospholipidosis EC50 [µM]
A549-ACE2 [20], 24 h	–	–	–	–	8.44
A549-ACE2 [20], 48 h	–	–	–	–	9.6
A549-ACE2 [20], 72 h	–	–	–	–	9.86
Caco-2 [11], 1 nM	–	–	96.2	–	–
Caco-2 [11], 10 nM	–	–	98	–	–
Caco-2 [11], 100 nM	–	–	94.5	–	–
Caco-2 [11], 1000 nM	–	–	103	–	–
Caco-2 [11], 10000 nM	–	–	93	–	–
Calu-3 [14], 1 nM	–	–	101	–	–
Calu-3 [14], 10 nM	–	–	101	–	–
Calu-3 [14], 100 nM	–	–	109	–	–
Calu-3 [14], 1000 nM	–	–	116	–	–
Calu-3 [14], 10000 nM	–	–	94.2	–	–
HepG2 [13], 1 nM	–	–	103	–	–
HepG2 [13], 10 nM	–	–	102	–	–
HepG2 [13], 100 nM	–	–	103	–	–
HepG2 [13], 1000 nM	–	–	89	–	–
HepG2 [13], 10000 nM	–	–	92.1	–	–
U2OS [12], 1 nM	–	–	95.2	–	–
U2OS [12], 10 nM	–	–	98	–	–
U2OS [12], 100 nM	–	–	95.5	–	–
U2OS [12], 1000 nM	–	–	98.3	–	–
U2OS [12], 10000 nM	–	–	92.4	–	–
Vero E6 [15], 1 nM	–	–	99.4	–	–
Vero E6 [15], 10 nM	–	–	104	–	–
Vero E6 [15], 100 nM	–	–	103	–	–
Vero E6 [15], 1000 nM	–	–	97.5	–	–
Vero E6 [15], 10000 nM	–	–	93.8	–	–
[16], 0.3 µM	–	–	–	-0.15	–
[16], 3 µM	–	–	–	0.67	–
[16], 10 µM	–	–	–	0.82	–
[16], 30 µM	–	–	–	0.71	–
[18], 0.3 µM	–	98	–	–	–
[18], 3 µM	–	112	–	–	–
[18], 10 µM	–	123	–	–	–
[18], 30 µM	–	120	–	–	–
[19], 0.3 µM	106	–	–	–	–
[19], 3 µM	60	–	–	–	–
[19], 10 µM	33	–	–	–	–
[19], 30 µM	12	–	–	–	–

Conditions	drug sensitivity score	relative viability EC50 [µM]
Caco-2 [1]	–	> 10
Caco-2 [6]	0	–
Calu-3 [4]	–	> 10
Calu-3 [9]	0	–
HepG2 [3]	–	> 10
HepG2 [8]	0.2	–
U2OS [2]	–	> 10
U2OS [7]	0	–
Vero E6 [5]	–	> 10
Vero E6 [10]	0	–

drug-induced phospholipidosis [%], A549-ACE2 [17]
Conditions	0.3 µM	0.833333 µM	3.33333 µM	6.66667 µM	10 µM	30 µM
24 h	2.39	-1.85	12.3	31.1	63.2	94.2
48 h	3.49	2.96	8.82	25.8	58.8	103
72 h	4.91	3.92	10.9	27.1	59.7	107

O=C(OCC(O)CO)c1ccccc1Nc1ccnc2cc(Cl)ccc12 (stereo not given) [glafenine]
Conditions	drug sensitivity score	relative viability EC50 [µM]
Caco-2 [1]	–	> 10
Caco-2 [6]	0	–
Calu-3 [4]	–	> 10
Calu-3 [9]	0	–
HepG2 [3]	–	> 10
HepG2 [8]	0	–
U2OS [2]	–	> 10
U2OS [7]	0	–
Vero E6 [5]	–	> 10
Vero E6 [10]	0	–

Conditions	SARS-CoV-2 infection rate, [19] [%]	cell count, [18] [%]	cell viability, Caco-2 [11] [%]	cell viability, Calu-3 [14] [%]	cell viability, HepG2 [13] [%]	cell viability, U2OS [12] [%]	cell viability, Vero E6 [15] [%]	morphology score, [16]
1 nM	–	–	84.7	89.4	99.8	97.2	101	–
10 nM	–	–	95.9	100	81.1	102	90.5	–
100 nM	–	–	66.6	87.7	97.4	94.8	102	–
0.3 µM	94	103	–	–	–	–	–	0.2
1000 nM	–	–	89.5	106	91	98.2	86.9	–
3 µM	88	85	–	–	–	–	–	0.28
10000 nM	–	–	95.7	94	94.3	89	107	–
10 µM	97	115	–	–	–	–	–	0.42
30 µM	53	104	–	–	–	–	–	0.74

drug-induced phospholipidosis [%], A549-ACE2 [17]
Conditions	0.3 µM	0.833333 µM	3.33333 µM	6.66667 µM	10 µM	30 µM
24 h	0.74	1.36	2	1.93	2.17	23.8
48 h	0.09	-3.04	0.5	3.25	3.8	23.1
72 h	-1.15	-3.87	-2.67	0.336	3.93	30.1
